pIC50: −log10 of the molar value. Where two headings read alike, the source gives them in different places.
Assays:
[1] = system: human platelet-rich plasma; experiment: Platelet aggregation assay (Aggregation-Human PRP/ADP); format: cell-based
Experimental: Platelet-rich plasma was prepared from healthy human volunteers for use in determining inhibition of platelet aggregation by the compounds.
Platelet-rich plasma was prepared at room temperature by centrifugation of the citrated whole blood at 100 × g for twelve minutes. The platelet rich plasma contained approximately 200-400,000 platelets/μl.
Platelet aggregation was assayed in a 4-channel platelet aggregation profiler (PAP-4, Biodata, Hatboro, Pa.) according to the manufacturers directions. Inhibition of platelet aggregation was studied by adding varying amounts of adenosine diphosphate (ADP) to stirred human platelet-rich plasma. Specifically, the human platelet-rich plasma was incubated with the compound being tested for 1 minute at 37° C. prior to the addition of a variety of aggregating agents most often ADP 5 μM to 20 μM, but also 1 μg/ml collagen, 1 μM U46619 and 0.3 μM platelet activating factor.

[2] = system: human platelet-rich plasma; experiment: as above; format: cell-based; remark: listed apart in the source
GPIIb-IIIa = target: T1, GPIIb-IIIa (Homo sapiens, UniProt P05106+P08514); experiment: ELISA IIb-IIIa assay (fibrinogen binding to immobilized purified GPIIb-IIIa); details: inhibition of fibrinogen binding to purified GPIIb-IIIa
T1 construct: Purified platelet GPIIb-IIIa receptor was prepared as described by Fitzgerald; from tissue; host or cells: platelets
T1 sequence (P08514 32-887 limits assumed): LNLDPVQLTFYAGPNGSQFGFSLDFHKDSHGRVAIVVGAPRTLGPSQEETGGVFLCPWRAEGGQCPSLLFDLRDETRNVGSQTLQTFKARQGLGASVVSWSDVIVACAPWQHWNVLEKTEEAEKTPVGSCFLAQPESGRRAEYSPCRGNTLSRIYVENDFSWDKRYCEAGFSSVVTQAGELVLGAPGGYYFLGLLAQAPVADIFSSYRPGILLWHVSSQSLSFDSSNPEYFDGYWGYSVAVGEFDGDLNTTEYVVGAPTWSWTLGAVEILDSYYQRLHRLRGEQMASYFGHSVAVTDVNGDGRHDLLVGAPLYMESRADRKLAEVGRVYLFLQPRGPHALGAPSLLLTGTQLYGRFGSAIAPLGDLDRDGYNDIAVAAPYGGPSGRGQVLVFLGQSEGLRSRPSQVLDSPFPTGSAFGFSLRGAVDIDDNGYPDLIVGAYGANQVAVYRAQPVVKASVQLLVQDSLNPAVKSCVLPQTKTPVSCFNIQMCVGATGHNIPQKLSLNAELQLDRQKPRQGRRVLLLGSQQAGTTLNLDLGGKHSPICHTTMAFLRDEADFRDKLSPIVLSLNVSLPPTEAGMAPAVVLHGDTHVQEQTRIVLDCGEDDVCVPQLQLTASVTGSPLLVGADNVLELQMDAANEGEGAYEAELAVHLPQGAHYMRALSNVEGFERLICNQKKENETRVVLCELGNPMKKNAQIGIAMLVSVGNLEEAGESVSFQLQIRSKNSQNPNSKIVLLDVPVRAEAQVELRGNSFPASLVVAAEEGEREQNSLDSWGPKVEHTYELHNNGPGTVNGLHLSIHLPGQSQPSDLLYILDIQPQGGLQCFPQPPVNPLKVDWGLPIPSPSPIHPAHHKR
T1 sequence (P08514 891-1039 limits assumed): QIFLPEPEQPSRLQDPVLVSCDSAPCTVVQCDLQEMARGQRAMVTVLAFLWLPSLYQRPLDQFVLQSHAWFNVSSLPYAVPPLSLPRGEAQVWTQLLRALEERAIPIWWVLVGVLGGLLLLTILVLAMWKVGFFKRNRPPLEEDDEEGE
T1 sequence (P05106 27-788): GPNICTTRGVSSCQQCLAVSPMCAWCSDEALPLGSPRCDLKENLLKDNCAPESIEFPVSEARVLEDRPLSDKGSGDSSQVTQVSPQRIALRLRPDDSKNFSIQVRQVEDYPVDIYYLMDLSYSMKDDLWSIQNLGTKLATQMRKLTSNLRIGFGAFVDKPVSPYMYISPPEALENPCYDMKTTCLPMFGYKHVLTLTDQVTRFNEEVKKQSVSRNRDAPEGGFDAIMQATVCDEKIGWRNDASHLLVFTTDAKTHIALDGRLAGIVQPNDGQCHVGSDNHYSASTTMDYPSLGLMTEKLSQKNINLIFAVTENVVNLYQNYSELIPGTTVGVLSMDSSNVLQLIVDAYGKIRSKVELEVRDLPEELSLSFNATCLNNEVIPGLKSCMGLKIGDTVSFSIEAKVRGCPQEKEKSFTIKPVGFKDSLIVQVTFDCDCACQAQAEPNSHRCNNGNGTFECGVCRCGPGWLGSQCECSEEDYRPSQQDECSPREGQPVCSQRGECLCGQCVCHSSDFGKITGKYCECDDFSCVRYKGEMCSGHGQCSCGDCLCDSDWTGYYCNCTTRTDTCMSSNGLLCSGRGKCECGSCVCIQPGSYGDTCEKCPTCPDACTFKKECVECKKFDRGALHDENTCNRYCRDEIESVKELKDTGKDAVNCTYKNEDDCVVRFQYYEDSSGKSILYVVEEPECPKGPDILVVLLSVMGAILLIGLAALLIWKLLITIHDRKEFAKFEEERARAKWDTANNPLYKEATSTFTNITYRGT
Experimental: No. 1 - The ELISA IIb-IIIa Assay
PIIb-IIIa is coated onto microtiter plates. The coated support is then contacted with fibrinogen and with the test material (e.g., compounds of Formula I) and incubated for a sufficient time to permit maximal binding of fibrinogen to the immobilized GPIIb- Ila. Fibrinogen is typically provided at a concentration of about 5-50 nM and the test material can, if desired, be added at a series of dilution. Typical incubations are 2 to 4 hours at 25° C., the time and temperature being interdependent.
After incubation, the solution containing the fibrinogen and test material is removed and the level of binding of fibrinogen measured by quantitating bound fibrinogen to GPIIb-IIIa. Any suitable means of detection may be used, but it is convenient to employ labeled fibrinogen, for example using biotinylated labels. Such methods are well known in the art.
A. Description of Assays—Plate Assays
After purification, the receptors were stored in 0.1% Triton X-100 at 0.1-1.0 mg/ml.
The receptors were coated to the wells of 96-well flat-bottom ELISA plates (Linbro EIA-Plus microtiter plate, Flow Laboratories) after diluting 1:200 with a solution of 20 mM Tris-HCl, 150 mM NaCl, 1 mM CaCl2, pH 7.4, to reduce the Triton X-100 concentration to below its critical micellar concentration and adding an aliquot of 100 ul to each well. The wells were all allowed to incubate overnight at 4° C., and then aspirated to dryness. Additional sites were blocked by the addition of bovine serum albumin (BSA) at 35 mg/ml in the above buffer for two hours at 30° C. to prevent nonspecific binding. The wells were then washed once with binding buffer ([…] Tris-HCl, 100 mM NaCl 2 mM CaCl2, 1 mg/ml BSA).
The corresponding ligands (fibrinogen, von Willebrand Factor, or vitronectin) were conjugated to biotin using commercially available reagents and standard protocols. The labeled ligands were added to the receptor-coated wells at final concentration of 10 nM (100 ul/well) and incubated for 3 hours at 25° C. in the presence or absence of the test samples. After incubation, the wells are aspirated to dryness and bound ligand is quantitated.
Decreased color development is observed in wells incubated with test samples which inhibit binding of ligand to receptor.

[3] = read-out: PRP (ADP-Citrate) IC50

SMILES	pIC50 [1, 3]	pIC50 ([2]; read-out: PRP (ADP-PPACK) IC50)	pIC50 (GPIIb-IIIa)	pIC50 ([1]; read-out: PRP (ADP) IC50)	pIC50 ([2]; read-out: PRP (PPACK) IC50)	pIC50 ([1]; read-out: PRP IC50)
O=C(O)CC(=O)N1CCN(C(=O)N2CCC3(CC2)CCN(c2ccncc2)C3)CC1 [Example 31, 3-oxo-3-(4-{[-(4-pyridyl)-2,8-diazaspiro[4.5]dec-8-yl]carbonyl}piperazino) propanoic acid]	6.18	5.44				
CCCCS(=O)(=O)N[C@@H](CNC(=O)C1CCC2(CC1)CCN(c1ccncc1)CC2)C(=O)O [Example 15]			8.00	6.77	6.16	
Cc1noc(C)c1S(=O)(=O)N[C@@H](CNC(=O)C1CCC2(CC1)CCN(c1ccncc1)CC2)C(=O)O [Example 13, (2S)-2-{[(3,5-dimethyl-4-isoxazolyl)sulfonyl]amino}-3-({[3-(4-pyridyl)-3-azaspiro [5.5]undec-9-yl]carbonyl}amino)propanoic acid]	7.36	7.17	9.00			
O=C(O)Cc1csc(NC(=O)CN2CCC3(CC2)CCN(c2ccncc2)C3)n1 [Example 54, 2-[2-({2-[2-(4-pyridyl)-2,8-diazaspiro[4.5]dec-8-yl]acetyl}amino)-1,3-thiazol-4-yl]acetic acid]	4.49		5.64			
O=C(O)COC1CCN(C(=O)N2CCC3(CC2)CCN(c2ccncc2)CC3)CC1 [Example 11, 2-[(1 -{[9-(4-pyridyl)-3,9-diazaspiro[5.5]undec-3-yl]carbonyl}-4-piperidyl)oxy]acetic acid]			6.89			5.58
O=C(O)COCC1CCN(C(=O)N2CCC3(CC2)CCN(c2ccncc2)C3)CC1 [Example 45, 2-[(1-{[2-(4-pyridyl)-2,8-diazaspiro[4.5]dec-8-yl]carbonyl}-4-piperidyl)-methoxy]acetic acid]			6.97			5.55
Cc1ccc(S(=O)(=O)N[C@@H](CNC(=O)C2CCC3(CC2)CCN(c2ccncc2)CC3)C(=O)O)cc1 [Example 14, (2S)-2-{[(4-methylphenyl)sulfonyl]amino}-3-({[3-(4-pyridyl)-3-azaspiro [5.5]undec-9-yl]carbonyl}amino)propanoic acid]	7.01	6.77	9.00			

From patent publication US20030055244A1, “Pyridyl-containing spirocyclic compounds as inhibitors of fibrinogen-dependent platelet aggregation” (priority 1999, published 2003)
